# Results reported in publication PMC7603008 (Materials, 2020).
# Ends that are not written are not given here.
# How the values were obtained:
# [1] = tested on: hDPCs; experiment: MTT cytotoxicity / proliferation assay; assay type: cell-based, human; conditions: 0 to 5 days, absorbance 540 nm, three independent experiments in triplicate
# Protocol: To evaluate the effects of Cpne7-DP on hDPCs proliferation, an MTT [3-(4,5-Dimethylthiazol-2-yl)-2,5-diphenyltetrazolium bromide, a tetrazole] assay (Sigma-Aldrich, Saint Louis, MO, USA) was performed. Cells were seeded on a 96-well plate at a density of 3 × 10^3 cells/well and treated with Cpne7-DP after 24 h. Cells were cultured for up to 5 days, and MTT analyses were performed on days 0, 1, 3, and 5. After washing with phosphate-buffered saline (PBS), 20 µL of MTT was added to each well and incubated for 4 h at 37 °C. After removing the MTT solution, the converted dye was dissolved in Me2SO and measured by reading the absorbance at a wavelength of 540 nm with a microplate reader (Multiskan EX; Thermo Electron Corp., Waltham, MA, USA). Three independent experiments with triplicate samples were analyzed.
# [2] = Dentinal tubule penetration by confocal laser scanning microscopy; set-up: species or system human; conditions: Rhodamin B-labeled Cpne7-DP 20 µg microbrushed for 1 min onto acid-etched dentin of extracted tooth, PBS wash
# Protocol: Human third molars were collected at the Seoul National University Dental Hospital (Seoul, Korea), and the experimental protocol was approved by the Institutional Review Board (IRB No: S-D20140007). Teeth were decoronated to 2–3 mm using a safe diamond disc (Isomet, Buehler Ltd., Düsseldorf, Germany) to eliminate the coronal enamel layer and expose the dentin surface. Teeth were then treated with 5 mL of 32% phosphoric acid solution for 5 min to completely open the dentinal tubules. To remove the residual smear layer, specimens were ultrasonicated in deionized water twice for 5 min each and then rinsed with PBS three times.
# Cpne7-DP was tagged with Rhodamin B dye using the Rhodamine Fast Conjugation kit (ab188286, Abcam, Cambridge, MA, USA) according to the manufacturer’s instructions. Rhodamin B-labeled Cpne7-DP (20 µg) was applied to the dentin surfaces of specimens with the help of disposable microbrushes for 1 min, and then specimens were washed with PBS three times. Subsequently, the specimens were longitudinally sectioned at a thickness of 0.5 mm using a safe diamond disc. The sections were mounted onto glass slides and scanned under a confocal laser scanning microscope (LSM 700; Carl Zeiss, Jena, Germany).
# [3] = tested on: MDPC-23 cells; experiment: Peptide translocation and localization by immunofluorescence; assay type: cell-based, mouse
# Protocol: For peptide translocation and localization analysis, a Cy5 Fast Conjugation Kit (ab188288, Abcam, Cambridge, MA, USA) was used to tag Cpne7-DP according to the manufacturer’s instructions. MDPC-23 cells were treated with Cy5-labeled Cpne7-DP (10 µg/mL) and fixed 3 h later. Before fixing with 4% paraformaldehyde in PBS, cells in Laboratory-Tek chamber slides (Nunc, Rochester, NY, USA) were washed with PBS. Cells were then visualized using fluorescence microscopy (AX70, Olympus, Tokyo, Japan). DAPI (Sigma-Aldrich) was used to identify the chromosomal DNA in the nucleus (1:1000 dilution).
sequence,measurement,setting,value
KYKQKRRSYK [Cpne7-DP],Cytotoxicity versus control (MTT),[1],no significant difference in cytotoxicity
same,Ability to permeate dentinal tubules,[2],flow through the entire length of the dentinal tubules into the pulp
same,Internalization with chlorpromazine (clathrin-mediated endocytosis inhibitor),"[3]; MDPC-23 cells pre-treated with CPZ 10 and 20 μM for 1 h, immunofluorescence",diffusely localized to the cytoplasm
same,Internalization with ethylisopropyl amiloride (macropinocytosis inhibitor),"[3]; MDPC-23 cells pre-treated with EIPA for 1 h, immunofluorescence",no effect on the cytoplasmic localization
same,Internalization with methyl-β-cyclodextrin (caveolin-mediated endocytosis inhibitor),"[3]; MDPC-23 cells pre-treated with MβCD for 1 h, immunofluorescence",diffusely localized to the cytoplasm
same,Internalization in nucleolin siRNA-transfected cells,"[3]; MDPC-23 cells pre-treated with nucleolin siRNA for 1 h, immunofluorescence",diffusely located in the cytoplasm
same,Intracellular distribution,"[3]; MDPC-23 cells, Cy5-labeled Cpne7-DP 10 µg/mL, fixed 3 h later, fluorescence microscopy",localized to the cytoplasm
